# Columns and labels:
# Format in all cases: physicochemical
# [1] = Thin film test, oxidative stability (time to insoluble residues and to solidification); conditions: 500 µm thick films at 120°C; for Vapor loss at solidification: at the duration of full film solidification
# Source text: (§1) The exact procedure, used here, has been described in detail by Stoncius, A. et al. in "Volatiles from Thin Film Degradation of Bio-based, Synthetic and Mineral Basestocks", published in Industrial Lubrication & Tribology, 2013, 65 (3) 209-215, 2013, Emerald Group Publishing Edition or by Brazinskiene, D. et al. in "Ester Basestock Vaporisation from Thin Oil Films", published in Lubrication Science, DOI: 10.1002/ls.1372, pp 1-17, 2017, Wiley Edition.
# (§2) Briefly, an oil film of 500 µm thickness was coated on steel coupon and heated at given temperature for specific duration in a forced-draft oven. Afterwards, the volatile losses and insoluble residues were measured gravimetrically.
# Therefore, thin films of commercial basestocks and α-ω dibasic esters were compared by exposing their thin films to 120°C as described by Stoncius, A. et al. in "Volatiles from Thin Film Degradation of Bio-based, Synthetic and Mineral Basestocks" published in Industrial Lubrication & Tribology, 2013, 65 (3), 209-215, Emerald Group Publishing Edition or by Brazinskiene, D. et al. in "Ester Basestock Vaporisation from Thin Oil Films" published in Lubrication Science, DOI: 10.1002/ls.1372, pp 1-17, 2017, Wiley Edition.
# The thin-film method determines how resistant oil is against formation of insoluble residues during oxidation. Degradation durations until initial formation of solid residues and complete solidification directly relate to oxidative stability.
# [2] = Kinematic viscosity with capillary Cannon-Fenske viscometers; Viscosity Index calculated per ASTM D2270; conditions: for Viscosity Index: calculated per ASTM D2270 from viscosities at 40°C and 100°C; for Viscosity, mm^2/s at 40°C: kinematic viscosity at 40°C; for Viscosity, mm^2/s at 100°C: kinematic viscosity at 100°C
# Experimental: Kinematic viscosities at 40°C and 100°C were measured using capillary Cannon-Fenske viscometers per ASTM […]. Viscosity Index (the value, describing the rate of thinning with increasing temperature) was calculated per ASTM D2270.
# [3] = Pour point and cloud point, cooling regime of ASTM D97; conditions: for Cloud point, °C: visual inspection during the same run
# Experimental: Pour points and cloud points were determined using the same thermal cooling regime, as instructed by ASTM D97. The sample sizes were 5 to 15 mL during the measurements.
# Cloud points were determined during the same run by visual inspection of the sample appearance at low temperature. The samples were removed from the freezer every 3°C for visual inspection and, if cloudy, meniscus movement with inversion. The pour point resembled the last measurement, at which the meniscus boundary was still moving within 5 seconds of horizontal inversion. All samples were tested in duplicate.
# In engine oils and hydraulic fluids, low temperature fluidity is primarily determined by pour points [ASTM D97]. Generally, pour points below -30°C are considered sufficient. Some polymer additives, e.g. "Pour Point Depressants" (PPD), are able to improve low temperature fluidity. […] Therefore, initially pour points and cloud points [ASTM D2500 "Standard Test Method for Cloud Point of Petroleum Products and Liquid Fuels"] of α-ω dibasic esters were evaluated and shown in Table 4.
# [4] = Solubility of lubricant additives in the basestocks; conditions: for Solubility of 1% w/w Vanlube 7723: Alkyl dithiocarbamate; for Solubility of 1% w/w Vanlube 7723 / Solubility of 1% w/w Irgalube ML605A / Solubility of 1% w/w Vanlube 7611 M / Solubility of 5% w/w Viscoplex 10-310 / Solubility of 2% w/w Vanlube RI- A / Solubility of 1% w/w Cobratec TT-100: mixed in at 50°C or lower, held longer than a week at room temperature; for Solubility of 1% w/w Irgalube ML605A: Amine and phosphate derivatives; for Solubility of 1% w/w Vanlube 7611 M: Phosphoro dithioate; for Solubility of 5% w/w Viscoplex 10-310: Poly alkyl methacrylate; for Solubility of 2% w/w Vanlube RI- A: Soap and ester derivatives; for Solubility of 1% w/w Cobratec TT-100: Tolyl triazole; for Initial solution appearance: all tested additives blended in, unchanged after 1 week at room temperature
# Experimental: Several typical lubricant additives have been tested for solubility in α-ω dibasic esters of 2-ethyl hexanol 26U18 and 26S12 as well as commercial basestock 350N. The additives were mixed in at temperatures of 50°C or lower and held for longer than a week at room temperature. Table 7. Solubility of lubricant additives, dissolved in α-ω dibasic esters and commercial basestocks
# The additives were selected to represent different chemical categories: soaps, heterocycles, phosphorous derivatives, polymers, etc. Most of these additives are designed to be dissolved in paraffinic mineral oils and synthetic lubricants with some heating. It is often thought that esters are better solvents than mineral oils or synthetic hydrocarbons like poly α-olefins. Therefore, the tested concentrations were much higher than additive proportions for hydraulic fluids, as recommended by the additive manufacturers.
# [5] = Thin film test, volatile losses (500 µm oil film on steel coupon, forced-draft oven, gravimetric); conditions: for Volatile emissions, 16 hrs / Volatile emissions, 36 hrs: 500 µm thick films at 120°C
# Source text: as §1, §2
# As discussed in the prior-art review, volatility can be successfully evaluated in a thin film test as described by Stoncius, A. et al. in "Volatiles from Thin Film Degradation of Bio-based, Synthetic and Mineral Basestocks" published in Industrial Lubrication & Tribology, 2013, 65 (3) 209-215, Emerald Group Publishing Edition or by Brazinskiene, D. et al. in "Ester Basestock Vaporisation from Thin Oil Films" published in Lubrication Science, DOI: 10.1002/ls.1372, pp 1-17, 2017, Wiley Edition. This thin-film method is much better suited for hydraulic fluid applications than NOACK or other tests, which employ 250°C or similar temperatures, related to engine oil applications. Also, the above method accounts for longer term decomposition reactions due to exposure to metal surfaces and oxidation, which is prevalent in hydraulic applications. Therefore, using the thin-film method short-term vapor losses were measured after 16 hrs and decomposition trends were compared after 36 hrs of testing. Heating temperature of 120°C was selected to compare thin films of α,ω dibasic esters with commercial basestocks. Table 5. Volatile emissions, % w/w from 500 µm thick films of α-ω dibasic esters and commercial basestocks at 120°C
Full solidification observed [1],Initial residues observed [1],Vapor loss at solidification [1],Viscosity Index [2],"Viscosity, mm^2/s at 40°C [2]","Viscosity, mm^2/s at 100°C [2]","Pour point, °C [3]","Cloud point, °C [3]",Solubility of 1% w/w Vanlube 7723 [4],Solubility of 1% w/w Irgalube ML605A [4],Solubility of 1% w/w Vanlube 7611 M [4],Solubility of 5% w/w Viscoplex 10-310 [4],Solubility of 2% w/w Vanlube RI- A [4],Solubility of 1% w/w Cobratec TT-100 [4],Initial solution appearance [4],"Volatile emissions, 16 hrs [5]","Volatile emissions, 36 hrs [5]","volatility ([5]; result in words, thin films at 120°C)",Substance
320 h,248 h,57% w/w,197,22.74 mm^2/s,5.53 mm^2/s,-57 °C,-36 °C,soluble,soluble,soluble,soluble,soluble,soluble,bright and clear,5.5 % w/w,10.7 % w/w,–,"1,18-di(2-ethylhexyl) octadec-9-enedioate [26U18]"
655 h,583 h,86% w/w,147,14.72 mm^2/s,3.72 mm^2/s,-48 °C,-30 °C,soluble,soluble,soluble,soluble,soluble,soluble,bright and clear,0.8 % w/w,1.75 % w/w,much lower volatility,"1,12-di(2-ethylhexyl) dodecanedioate [26S12, reference compound]"
